From patent publication US10323027B2, “2,3-dihydro-4H-1,3-benzoxazin-4-one derivatives as modulators of cholinergic muscarinic M1 receptor” (Takeda Pharmaceutical Company Limited, priority 2015, dated 2019)

Target: T1, human M1 receptor (hCHRM1) (Homo sapiens, UniProt P11229)
T1 construct: expressed in transfected cells
T1 sequence (P11229 1-460): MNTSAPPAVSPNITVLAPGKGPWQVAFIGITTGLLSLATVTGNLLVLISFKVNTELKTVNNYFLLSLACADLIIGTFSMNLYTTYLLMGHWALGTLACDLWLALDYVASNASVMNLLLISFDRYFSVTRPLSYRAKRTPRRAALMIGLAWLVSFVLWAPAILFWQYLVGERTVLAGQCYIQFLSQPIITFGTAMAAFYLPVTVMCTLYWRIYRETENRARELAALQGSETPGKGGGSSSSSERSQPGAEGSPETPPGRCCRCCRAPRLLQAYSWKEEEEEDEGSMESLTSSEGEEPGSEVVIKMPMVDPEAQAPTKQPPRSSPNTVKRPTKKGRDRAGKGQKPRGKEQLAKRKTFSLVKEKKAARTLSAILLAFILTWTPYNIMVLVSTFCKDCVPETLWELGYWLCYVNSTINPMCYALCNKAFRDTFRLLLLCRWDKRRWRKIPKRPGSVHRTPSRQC
Assay: Measurement of M1 receptor positive allosteric modulator (M1PAM) activity, Ca2+ fluorescence by FLIPRtetra (Experimental Example 1)
Assay type: cell-based
Conditions: for activity (%) at 10 μM: 10 μM test compound, 100% = acetylcholine 1 μM, 0% = DMSO; for EC50: inflection point of concentration-dependent curve, in presence of acetylcholine at EC20 (0.8-1.0 nM), CHO-K1 cells expressing hCHRM1, read-out: IP value
Procedure, shortened: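 CHO-K1 cells stably expressing hCHRM1, loaded with Fluo-4 AM (probenecid), received compound with acetylcholine at EC20 (final 0.8-1.0 nM); Ca2+ fluorescence read 1 min by FLIPRtetra. Activity scaled 0% (DMSO) to 100% (1 μM acetylcholine); IP from inflection point of concentration curve.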

Row | Compound | activity (%) at 10 μM | EC50
1 | O=C1c2cc(Cc3ccc(Cl)nc3)c3ccccc3c2OCN1[C@H]1CCC[C@@H]1O [Example 43, 6-((6-chloropyridin-3-yl)methyl)-3-((1S,2S)-2-hydroxycyclopentyl)-2,3-dihydro-4H-naphtho[2,1-e][1,3]oxazin-4-one] | 93% | 2.4 nM
2 | Cc1c(Cc2ccc(C#N)cc2)cc2c(c1C)OCN([C@H]1CCC[C@@H]1O)C2=O [Example 44, 4-((3-((1S,2S)-2-hydroxycyclopentyl)-7,8-dimethyl-4-oxo-3,4-dihydro-2H-1,3-benzoxazin-6-yl)methyl)benzonitrile] | 99% | 3.9 nM
3 | Cc1c(Cc2ccc(-c3cnn(C)c3)nc2)cc2c(c1Cl)OCN(CC1CCCO1)C2=O (stereo not drawn) [Example 45, 8-chloro-7-methyl-6-((6-(1-methyl-1H-pyrazol-4-yl)pyridin-3-yl)methyl)-3-(tetrahydrofuran-2-ylmethyl)-2,3-dihydro-4H-1,3-benzoxazin-4-one] | 92% | 4.8 nM
4 | COc1ccc(Cc2cc3c(c4ccccc24)OCN([C@H]2COCC[C@@H]2O)C3=O)cn1 [Example 46, 1,5-anhydro-2,4-dideoxy-2-(6-((6-methoxypyridin-3-yl)methyl)-4-oxo-2H-naphtho[2,1-e][1,3]oxazin-3(4H)-yl)-L-threo-pentitol] | 109% | 4.9 nM
5 | Cn1cc(-c2ccc(Cc3cc4c(c5ccccc35)OCNC4=O)cn2)cn1 [Example 47, 6-((6-(1-methyl-1H-pyrazol-4-yl)pyridin-3-yl)methyl)-2,3-dihydro-4H-naphtho[2,1-e][1,3]oxazin-4-one] | 110% | 5.3 nM
6 | Cc1cc2c(cc1Cc1ccc(-n3cccn3)cc1)C(=O)N([C@H]1COCC[C@@H]1O)CO2 [Example 50, 1,5-anhydro-2,4-dideoxy-2-(7-methyl-4-oxo-6-(4-(1H-pyrazol-1-yl)benzyl)-2H-1,3-benzoxazin-3(4H)-yl)-L-threo-pentitol] | 120% | 8.6 nM
7 | Cc1c(Cc2ccc(Cl)nc2)cc2c(c1F)OCN([C@H]1CCCC[C@@H]1O)C2=O [Example 54, 6-((6-chloropyridin-3-yl)methyl)-8-fluoro-3-((1S,2S)-2-hydroxycyclohexyl)-7-methyl-2,3-dihydro-4H-1,3-benzoxazin-4-one] | 116% | 11 nM
8 | O=C1c2cc(CN3CCSCC3)c3ccccc3c2OCN1[C@H]1CCC[C@@H]1O [Example 57, 3-((1S,2S)-2-hydroxycyclopentyl)-6-(thiomorpholin-4-ylmethyl)-2,3-dihydro-4H-naphtho[2,1-e][1,3]oxazin-4-one] | 106% | 16 nM
9 | Cc1ccc(Cc2cc3c(c4ccccc24)OCN(CC2CCCO2)C3=O)cn1 (stereo not drawn) [Example 58, 6-((6-methylpyridin-3-yl)methyl)-3-(tetrahydrofuran-2-ylmethyl)-2,3-dihydro-4H-naphtho[2,1-e][1,3]oxazin-4-one] | 94% | 16 nM
10 | O=C1c2cc(CN3CC[S+]([O-])CC3)c3ccccc3c2OCN1[C@H]1CCC[C@@H]1O [Example 60, 3-((1S,2S)-2-hydroxycyclopentyl)-6-((1-oxidothiomorpholin-4-yl)methyl)-2,3-dihydro-4H-naphtho[2,1-e][1,3]oxazin-4-one] | 105% | 22 nM
11 | Cc1cc2c(cc1Cc1ccc(-c3cn(C)nn3)cc1)C(=O)N(CC1CCCO1)CO2 (stereo not drawn) [Example 61, 7-methyl-6-(4-(1-methyl-1H-1,2,3-triazol-4-yl)benzyl)-3-(tetrahydrofuran-2-ylmethyl)-2,3-dihydro-4H-1,3-benzoxazin-4-one] | 92% | 23 nM
12 | Cc1ccc(Cc2cc3c(cc2C)OCN([C@H]2CCC[C@@H]2O)C3=O)cn1 [Example 64, 3-((1S,2S)-2-hydroxycyclopentyl)-7-methyl-6-((6-methylpyridin-3-yl)methyl)-2,3-dihydro-4H-1,3-benzoxazin-4-one] | 99% | 34 nM
13 | Cc1cc2c(cc1Cc1ccc(C#N)cc1)C(=O)N([C@H]1CCC[C@@H]1O)CO2 [Example 67, 4-((3-((1S,2S)-2-hydroxycyclopentyl)-7-methyl-4-oxo-3,4-dihydro-2H-1,3-benzoxazin-6-yl)methyl)benzonitrile] | 98% | 46 nM
14 | Cc1ccc(Cc2cc3c(c4ccccc24)OCN(CC2CCCO2)C3=O)cn1 (stereo not drawn) [Example 68, 6-((6-methylpyridin-3-yl)methyl)-3-(tetrahydrofuran-2-ylmethyl)-2,3-dihydro-4H-naphtho[2,1-e][1,3]oxazin-4-one] | 90% | 48 nM
15 | O=C1c2cc(CN3CCC(F)(F)C3)c3ccccc3c2OCN1[C@H]1CCC[C@@H]1O [Example 69, 6-((3,3-difluoropyrrolidin-1-yl)methyl)-3-((1S,2S)-2-hydroxycyclopentyl)-2,3-dihydro-4H-naphtho[2,1-e][1,3]oxazin-4-one] | 93% | 51 nM
16 | N#CC1CCN(Cc2cc3c(c4ccccc24)OCN([C@H]2CCC[C@@H]2O)C3=O)CC1 [Example 70, 1-((3-((1S,2S)-2-hydroxycyclopentyl)-4-oxo-3,4-dihydro-2H-naphtho[2,1-e][1,3]oxazin-6-yl)methyl)piperidine-4-carbonitrile] | 104% | 52 nM
17 | Cc1cc2c(cc1Cc1ccc(-c3cn(C)nn3)nc1)C(=O)N(CC1CCCO1)CO2 (stereo not drawn) [Example 71, 7-methyl-6-((6-(1-methyl-1H-1,2,3-triazol-4-yl)pyridin-3-yl)methyl)-3-(tetrahydrofuran-2-ylmethyl)-2,3-dihydro-4H-1,3-benzoxazin-4-one] | 105% | 53 nM
18 | O=C1c2cc(CN3CCCC(F)(F)C3)c3ccccc3c2OCN1[C@H]1CCC[C@@H]1O [Example 72, 6-((3,3-difluoropiperidin-yl)methyl)-3-((1S,2S)-2-hydroxycyclopentyl)-2,3-dihydro-4H-naphtho[2,1-e][1,3]oxazin-4-one] | 100% | 57 nM
19 | COc1ccc(Cc2cc3c(cc2C)OCN([C@H]2CCC[C@@H]2O)C3=O)cc1 [Example 73, 3-((1S,2S)-2-hydroxycyclopentyl)-6-(4-methoxybenzyl)-7-methyl-2,3-dihydro-4H-1,3-benzoxazin-4-one] | 97% | 59 nM
20 | COc1c(Cc2ccc(-c3cnn(C)c3)nc2)cc2c(c1F)OCN(CC1CCCO1)C2=O (stereo not drawn) [Example 74, 8-fluoro-7-methoxy-6-((6-(1-methyl-1H-pyrazol-4-yl)pyridin-3-yl)methyl)-3-(tetrahydrofuran-2-ylmethyl)-2,3-dihydro-4H-1,3-benzoxazin-4-one] | 104% | 59 nM
21 | N#CC1CCN(Cc2cc3c(c4ccccc24)OCN([C@H]2CCC[C@@H]2O)C3=O)C1 (stereo partly drawn) [Example 75, 1-((3-((1S,2S)-2-hydroxycyclopentyl)-4-oxo-3,4-dihydro-2H-naphtho[2,1-e][1,3]oxazin-6-yl)methyl)pyrrolidine-3-carbonitrile (diastereoisomer)] | 102% | 60 nM
22 | O=C1c2cc(Cc3ccc(Cl)nc3)c3ccccc3c2OCN1CC1CCCO1 (stereo not drawn) [Example 76, 6-((6-chloropyridin-3-yl)methyl)-3-(tetrahydrofuran-2-ylmethyl)-2,3-dihydro-4H-naphtho[2,1-e][1,3]oxazin-4-one] | 93% | 63 nM
23 | O=C1c2cc(CN3CCOCC3)c3ccccc3c2OCN1[C@H]1CCC[C@@H]1O [Example 77, 3-((1S,2S)-2-hydroxycyclopentyl)-6-(morpholin-4-ylmethyl)-2,3-dihydro-4H-naphtho[2,1-e][1,3]oxazin-4-one] | 104% | 63 nM
24 | Cc1c(Cc2ccc(-n3cccn3)cc2)cc2c(c1F)OCN(CC1CCCO1)C2=O (stereo not drawn) [Example 78, 8-fluoro-7-methyl-6-(4-(1H-pyrazol-1-yl)benzyl)-3-(tetrahydrofuran-2-ylmethyl)-2,3-dihydro-4H-1,3-benzoxazin-4-one] | 104% | 75 nM
25 | O=C1c2cc(CN3CCC(F)CC3)c3ccccc3c2OCN1[C@H]1CCC[C@@H]1O [Example 79, 6-((4-fluoropiperidin-1-yl)methyl)-3-((1S,2S)-2-hydroxycyclopentyl)-2,3-dihydro-4H-naphtho[2,1-e][1,3]oxazin-4-one] | 97% | 78 nM
26 | O=C1NCOc2c1cc(Cc1ccc(Cl)nc1)c1ccccc21 [Example 80, 6-((6-chloropyridin-3-yl)methyl)-2,3-dihydro-4H-naphtho[2,1-e][1,3]oxazin-4-one] | 97% | 81 nM
27 | Cc1ccc(Cc2cc3c(c(F)c2Cl)OCN([C@H]2CCC[C@@H]2O)C3=O)cn1 [Example 81, 7-chloro-8-fluoro-3-((1S,2S)-2-hydroxycyclopentyl)-6-((6-methylpyridin-3-yl)methyl)-2,3-dihydro-4H-1,3-benzoxazin-4-one] | 110% | 86 nM
